Key:
[1] = system: PBP2; details: 2 mM EDTA
[2] = biological target: PBP2WT (Clostridioides difficile, UniProt A0A9R0CDX1); experiment: biochemical; type: binding
[3] = biological target: T1, PBP2D515N (Clostridioides difficile, UniProt A0A9R0CDX1, D515N); experiment: biochemical; type: binding
T1 sequence (A0A9R0CDX1 36-962 D515N): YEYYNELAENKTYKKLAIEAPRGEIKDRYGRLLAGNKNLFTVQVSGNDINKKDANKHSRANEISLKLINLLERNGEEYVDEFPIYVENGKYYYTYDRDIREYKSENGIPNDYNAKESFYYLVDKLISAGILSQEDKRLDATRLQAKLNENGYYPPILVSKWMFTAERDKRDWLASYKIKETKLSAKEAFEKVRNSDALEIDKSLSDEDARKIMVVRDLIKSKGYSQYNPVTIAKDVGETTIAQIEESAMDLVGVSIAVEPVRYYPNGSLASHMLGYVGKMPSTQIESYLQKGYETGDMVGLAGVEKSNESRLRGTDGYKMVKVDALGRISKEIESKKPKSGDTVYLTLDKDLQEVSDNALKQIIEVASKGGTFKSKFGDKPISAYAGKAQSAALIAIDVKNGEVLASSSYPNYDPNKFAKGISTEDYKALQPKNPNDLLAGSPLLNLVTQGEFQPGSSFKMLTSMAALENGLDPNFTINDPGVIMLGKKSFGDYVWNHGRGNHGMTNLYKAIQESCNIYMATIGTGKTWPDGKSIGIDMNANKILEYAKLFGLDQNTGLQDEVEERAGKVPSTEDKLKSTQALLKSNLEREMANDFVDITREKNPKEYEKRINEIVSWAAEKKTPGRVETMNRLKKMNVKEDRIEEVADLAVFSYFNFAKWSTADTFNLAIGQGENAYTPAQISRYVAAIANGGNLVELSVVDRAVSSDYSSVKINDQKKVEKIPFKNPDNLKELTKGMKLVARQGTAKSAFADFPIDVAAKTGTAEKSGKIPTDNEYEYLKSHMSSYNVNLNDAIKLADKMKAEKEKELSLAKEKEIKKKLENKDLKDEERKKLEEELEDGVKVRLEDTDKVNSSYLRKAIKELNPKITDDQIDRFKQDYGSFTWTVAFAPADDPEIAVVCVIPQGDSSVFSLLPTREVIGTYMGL

[4] = system: C. difficile; design: method as in PMID 29533126; details: cited from earlier work

Molecule: O=C(O)CN(CCN(CC(=O)O)CC(=O)O)CC(=O)O [EDTA]
- PBP2 activity [1]: not affected

Molecule: Cc1cc(C)n2c1C=C1C=CC(CCC(=O)Nc3ccc(OCC(=O)N[C@@H]4C(=O)N5[C@@H]4SC(C)(C)[C@@H]5C(=O)O)cc3)=[N+]1[B-]2(F)F [bocillin]
- Kd [2]: 2.95 ± 0.72 µM
- Kd [3]: 16.7 ± 2.72 µM

B1: calprotectin: a protein secreted by the immune system in response to intestinal inflammation; chelator of divalent cations such as Ca2+ and Zn2+ (protein, UniProt P05109 1-93; P06702 1-114, looked up)
Protein S100-A8: MLTELEKALNSIIDVYHKYSLIKGNFHAVYRDDLKKLLETECPQYIRKKGADVWFKELDINTDGAVNFQEFLILVIKMGVAAHKKSHEESHKE
Protein S100-A9: MTCKMSQLERNIETIINTFHQYSVKLGHPDTLNQGEFKELVRKDLQNFLKKENKNEKVIEHIMEDLDTNADKQLSFEEFIMLMARLTWASHEKMHEGDEGPGHHHKPGLGEGTP
- C. difficile growth (in words) [4]: inhibits C. difficile growth
